Laboratory results taken from ChEMBL document CHEMBL1649349, “Discovery of a novel nitroimidazolyl-oxazolidinone hybrid with potent anti Gram-positive activity: Synthesis and antibacterial evaluation” (Eur J Med Chem, 2011).
Converted amounts (≈) assume the structure as drawn.

Legend:
Bacillus subtilis = experiment: Antimicrobial activity against Bacillus subtilis PTCC 1023 by conventional agar-dilution method; assay type: functional
[1] = system: Corynebacterium glutamicum; experiment: Antimicrobial activity against Corynebacterium glutamicum ATCC 13032 by conventional agar-dilution method; assay type: functional
Escherichia coli = experiment: Antimicrobial activity against Escherichia coli ATCC 8739 by conventional agar-dilution method; assay type: functional
Klebsiella pneumoniae = experiment: Antimicrobial activity against Klebsiella pneumoniae ATCC 10031 by conventional agar-dilution method; assay type: functional
Micrococcus luteus = experiment: Antimicrobial activity against Micrococcus luteus ATCC 9341 by conventional agar-dilution method; assay type: functional
Staphylococcus aureus [2] = experiment: Antimicrobial activity against methicillin-resistant Staphylococcus aureus 3 by conventional agar-dilution method; assay type: functional
Staphylococcus aureus [3] = experiment: Antimicrobial activity against methicillin-resistant Staphylococcus aureus 5 by conventional agar-dilution method; assay type: functional
Staphylococcus aureus [4] = experiment: Antimicrobial activity against methicillin-resistant Staphylococcus aureus 17 by conventional agar-dilution method; assay type: functional
Pseudomonas aeruginosa = experiment: Antimicrobial activity against Pseudomonas aeruginosa ATCC 9027 by conventional agar-dilution method; assay type: functional
Staphylococcus aureus [5] = experiment: Antimicrobial activity against Staphylococcus aureus ATCC 6538p by conventional agar-dilution method; assay type: functional
[6] = system: Staphylococcus epidermidis; experiment: Antimicrobial activity against Staphylococcus epidermidis ATCC 12228 by conventional agar-dilution method; assay type: functional
Mammaliicoccus lentus = experiment: Antimicrobial activity against Staphylococcus lentus ATCC 29070 by conventional agar-dilution method; assay type: functional
[7] = system: Staphylococcus saprophyticus; experiment: Antimicrobial activity against Staphylococcus saprophyticus ATCC 15305 by conventional agar-dilution method; assay type: functional
Staphylococcus warneri = experiment: Antimicrobial activity against Staphylococcus warneri ATCC 27836 by conventional agar-dilution method; assay type: functional
Staphylococcus xylosus = experiment: Antimicrobial activity against Staphylococcus xylosus ATCC 2997 by conventional agar-dilution method; assay type: functional
[8] = Cytotoxicity against mouse NIH/3T3 cells by MTT colorimetric assay; assay type: cell-based; conditions: NIH3T3

Compound | MIC (Bacillus subtilis) [µg/mL] | MIC [1] [µg/mL] | MIC (Escherichia coli) [µg/mL] | MIC (Klebsiella pneumoniae) [µg/mL] | MIC (Micrococcus luteus) [µg/mL] | MIC (Staphylococcus aureus [2]) [µg/mL] | MIC (Staphylococcus aureus [3]) [µg/mL] | MIC (Staphylococcus aureus [4]) [µg/mL] | MIC (Pseudomonas aeruginosa) [µg/mL] | MIC (Staphylococcus aureus [5]) [µg/mL] | MIC [6] [µg/mL] | MIC (Mammaliicoccus lentus) [µg/mL] | MIC [7] [µg/mL] | MIC (Staphylococcus warneri) [µg/mL] | MIC (Staphylococcus xylosus) [µg/mL] | IC50 [8] [µg/mL]
CC(=O)NC[C@H]1CN(c2ccc(N3CCN(c4nnc(-c5ccc([N+](=O)[O-])s5)s4)CC3)c(F)c2)C(=O)O1 | 0.781 (≈ 1.43 µM) | 6.25 (≈ 11.4 µM) | > 100 | 100 (≈ 183 µM) | 6.25 (≈ 11.4 µM) | 0.195 (≈ 0.356 µM) | 6.25 (≈ 11.4 µM) | 0.098 (≈ 0.179 µM) | > 100 | 0.098 (≈ 0.179 µM) | 0.024 (≈ 0.0438 µM) | 0.098 (≈ 0.179 µM) | 0.195 (≈ 0.356 µM) | 0.049 (≈ 0.0895 µM) | 0.098 (≈ 0.179 µM) | 184 (≈ 336 µM)
CC(=O)NC[C@H]1CN(c2ccc(N3CCN(c4nnc(-c5ccc([N+](=O)[O-])o5)s4)CC3)c(F)c2)C(=O)O1 | 0.391 (≈ 0.736 µM) | 0.195 (≈ 0.367 µM) | > 100 | 50 (≈ 94.1 µM) | 0.391 (≈ 0.736 µM) | 0.049 (≈ 0.0922 µM) | 0.195 (≈ 0.367 µM) | 0.012 (≈ 0.0226 µM) | > 100 | 0.012 (≈ 0.0226 µM) | 0.006 (≈ 0.0113 µM) | 0.012 (≈ 0.0226 µM) | 0.024 (≈ 0.0452 µM) | 0.006 (≈ 0.0113 µM) | 0.024 (≈ 0.0452 µM) | 21.8 (≈ 41 µM)
CC(=O)NC[C@H]1CN(c2ccc(N3CCN(c4nnc(-c5ncc([N+](=O)[O-])n5C)s4)CC3)c(F)c2)C(=O)O1 | 0.098 (≈ 0.18 µM) | 0.195 (≈ 0.357 µM) | > 100 | 0.781 (≈ 1.43 µM) | 0.195 (≈ 0.357 µM) | 0.391 (≈ 0.717 µM) | 0.195 (≈ 0.357 µM) | 0.024 (≈ 0.044 µM) | > 100 | 0.098 (≈ 0.18 µM) | 0.024 (≈ 0.044 µM) | 0.098 (≈ 0.18 µM) | 0.024 (≈ 0.044 µM) | 0.006 (≈ 0.011 µM) | 0.049 (≈ 0.0898 µM) | > 200
CC(=O)NC[C@H]1CN(c2ccc(N3CCNCC3)c(F)c2)C(=O)O1 | 12.5 (≈ 37.2 µM) | 1.56 (≈ 4.65 µM) | 50 (≈ 149 µM) | 25 (≈ 74.3 µM) | 1.56 (≈ 4.65 µM) | 25 (≈ 74.3 µM) | 12.5 (≈ 37.2 µM) | 25 (≈ 74.3 µM) | > 100 | 12.5 (≈ 37.2 µM) | 6.25 (≈ 18.6 µM) | 12.5 (≈ 37.2 µM) | 3.12 (≈ 9.29 µM) | 18 (≈ 53.5 µM) | 3.12 (≈ 9.29 µM) | > 200
O=C(O)c1cn(C2CC2)c2cc(N3CCNCC3)c(F)cc2c1=O [CIPROFLOXACIN] | 0.195 (≈ 0.589 µM) | 0.391 (≈ 1.18 µM) |  | 0.003 (≈ 0.00905 µM) | 3.12 (≈ 9.43 µM) | 0.391 (≈ 1.18 µM) | 0.391 (≈ 1.18 µM) | 0.391 (≈ 1.18 µM) | 0.0391 (≈ 0.118 µM) | 0.195 (≈ 0.589 µM) | 0.391 (≈ 1.18 µM) | 0.781 (≈ 2.36 µM) | 0.098 (≈ 0.296 µM) | 0.195 (≈ 0.589 µM) | 0.391 (≈ 1.18 µM) | 
CC(=O)NC[C@H]1CN(c2ccc(N3CCOCC3)c(F)c2)C(=O)O1 [LINEZOLID] | 0.391 (≈ 1.16 µM) | 0.781 (≈ 2.32 µM) | > 100 | 6.25 (≈ 18.5 µM) | 0.781 (≈ 2.32 µM) | 0.781 (≈ 2.32 µM) | 0.781 (≈ 2.32 µM) | 0.781 (≈ 2.32 µM) | > 100 | 0.781 (≈ 2.32 µM) | 0.781 (≈ 2.32 µM) | 1.56 (≈ 4.63 µM) | 0.781 (≈ 2.32 µM) | 0.781 (≈ 2.32 µM) | 0.781 (≈ 2.32 µM) | 
